According to ChEMBL document CHEMBL1201862, “PubChem BioAssay data set” (2004):
The source made the active and inactive calls.

Assays:
cells [1] = type: functional
Cytochrome P450 3A4 = Cytochrome P450 3A4 (Homo sapiens, UniProt P08684);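 note: CYP3A4 tested as one member of a cytochrome P450 panel screen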
cells [2] = type: functional, cell-based
cells [3] = type: functional, cell-based; remark: listed apart in the source
Streptococcus = assay: Group A Streptococcus viability loss, dose response, counter-screen for streptokinase expression inhibitor project, luminescence, BacTiterGlo (AID 1915); type: functional, organism-based;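 note: potency for reduction of bacterial viability or growth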
[4] = test system: Streptococcus sp. 'group A'; assay: growth inhibition of control SK(-) GAS strain, dose response, counter-screen for streptokinase expression inhibitor project, luminescence, kanamycin, BacTiterGlo, confirmation (AID 1900); type: functional, organism-based
Cytochrome P450 1A2 = target: T1, Cytochrome P450 1A2 (Homo sapiens, UniProt P05177);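 note: PubChem cytochrome P450 panel assay, CYP1A2 panel member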
T1 sequence (P05177 whole entry): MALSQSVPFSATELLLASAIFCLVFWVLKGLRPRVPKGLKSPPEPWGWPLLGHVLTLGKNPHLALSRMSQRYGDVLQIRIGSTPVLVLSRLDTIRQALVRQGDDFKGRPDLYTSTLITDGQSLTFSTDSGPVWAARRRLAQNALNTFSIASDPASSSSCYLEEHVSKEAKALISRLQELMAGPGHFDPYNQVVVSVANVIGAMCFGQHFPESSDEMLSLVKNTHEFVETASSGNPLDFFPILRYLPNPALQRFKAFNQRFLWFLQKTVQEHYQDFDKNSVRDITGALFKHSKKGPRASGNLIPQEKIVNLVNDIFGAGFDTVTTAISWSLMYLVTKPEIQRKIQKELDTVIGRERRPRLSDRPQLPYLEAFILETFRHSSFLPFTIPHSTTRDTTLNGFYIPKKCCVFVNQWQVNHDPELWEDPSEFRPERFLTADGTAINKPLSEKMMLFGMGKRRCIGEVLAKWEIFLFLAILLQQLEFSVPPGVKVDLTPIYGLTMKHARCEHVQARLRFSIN

[5] = target: T2, Corticotropin-releasing factor receptor 2/Corticotropin-releasing factor-binding protein (Homo sapiens, UniProt P24387+Q13324); assay: activators of CRF receptor 2 with binding protein – uHTS hits, confirmation (AID 602473); type: functional; settings: read-out: EC50_Mean
T2 sequence (Q13324 whole entry): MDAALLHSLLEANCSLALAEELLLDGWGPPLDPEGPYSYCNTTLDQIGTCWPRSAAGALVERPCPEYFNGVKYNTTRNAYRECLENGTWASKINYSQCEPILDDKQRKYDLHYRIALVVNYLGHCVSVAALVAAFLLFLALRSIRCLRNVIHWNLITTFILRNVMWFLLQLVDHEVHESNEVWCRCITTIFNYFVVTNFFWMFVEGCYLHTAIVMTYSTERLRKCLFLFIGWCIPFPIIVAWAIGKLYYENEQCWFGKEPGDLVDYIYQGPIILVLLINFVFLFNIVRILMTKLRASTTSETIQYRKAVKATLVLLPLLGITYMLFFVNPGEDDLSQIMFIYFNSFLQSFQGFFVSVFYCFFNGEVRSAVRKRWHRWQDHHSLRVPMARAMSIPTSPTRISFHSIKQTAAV
T2 sequence (P24387 whole entry): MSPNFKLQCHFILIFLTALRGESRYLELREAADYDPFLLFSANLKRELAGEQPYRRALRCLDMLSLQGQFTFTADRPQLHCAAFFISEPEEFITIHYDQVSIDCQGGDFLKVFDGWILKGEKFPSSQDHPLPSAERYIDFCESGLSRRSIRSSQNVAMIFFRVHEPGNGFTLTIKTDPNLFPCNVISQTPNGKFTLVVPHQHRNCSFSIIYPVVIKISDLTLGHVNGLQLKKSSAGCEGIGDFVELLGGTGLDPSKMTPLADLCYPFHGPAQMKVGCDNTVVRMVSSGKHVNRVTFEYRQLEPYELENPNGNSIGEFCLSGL

[6] = Luminescence Cell-Based Dose Retest to Confirm Inhibitors of Cancer Stem Cells. [Related pubchem assays (depositor defined):AID2717, AID2721]; type: functional; settings: Homo sapiens
[7] = target: T3, Heat shock factor protein 1 (Mus musculus, UniProt P38532); assay: inhibition of MG132-induced HSE-luciferase signal, confirmation, cell-based, NIH3T3, luminescence, dose retest (AID 2382); type: functional;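 note: NIH3T3 fibroblasts with HSF1-driven luciferase reporter stressed by proteasome inhibitor MG132; luminescence from HSF1-driven luciferase expression after 8 hours of MG132 stress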
T3 sequence (P38532 whole entry): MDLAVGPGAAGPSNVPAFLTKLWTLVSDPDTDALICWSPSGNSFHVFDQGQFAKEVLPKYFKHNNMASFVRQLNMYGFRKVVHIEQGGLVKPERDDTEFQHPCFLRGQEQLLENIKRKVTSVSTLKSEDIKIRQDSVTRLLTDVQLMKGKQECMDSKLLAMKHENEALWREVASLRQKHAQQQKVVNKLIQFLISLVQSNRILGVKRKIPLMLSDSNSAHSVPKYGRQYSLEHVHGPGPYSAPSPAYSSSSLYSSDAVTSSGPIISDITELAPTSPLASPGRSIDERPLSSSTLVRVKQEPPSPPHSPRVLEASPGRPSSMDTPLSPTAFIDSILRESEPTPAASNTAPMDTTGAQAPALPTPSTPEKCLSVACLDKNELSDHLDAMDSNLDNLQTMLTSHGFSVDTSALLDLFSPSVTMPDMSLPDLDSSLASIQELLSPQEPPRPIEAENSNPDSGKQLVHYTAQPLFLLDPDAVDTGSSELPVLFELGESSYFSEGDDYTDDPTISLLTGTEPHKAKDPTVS

H4 = assay: Luminescence Cell-Based Dose Response HTS to Identify Activators of 5'UTR Stem-Loop Driven Prion Protein mRNA Translation in H4 Neuroglioblastoma Cells. [Related pubchem assays: 1829 (Project Summary), 1814 (Primary HTS)]; type: functional; settings: Homo sapiens
[8] = Luminescence Cell-Based Dose Response HTS to Identify Activators of Luciferase Translation or Activity in H4 […] Cells. [Related pubchem assays: 1829 (Project Summary), 1814 (Primary HTS)]; type: functional
[9] = inhibitors of firefly luciferase expression or activity, dose response, H4 neuroglioma cells, luminescence (AID 1990); type: functional, cell-based
[10] = Luminescence Cell-Based Dose Response HTS to Identify Inhibitors of 5'UTR Stem-Loop Driven Prion Protein mRNA Translation in H4 Neuroglioblastoma Cells. [Related pubchem assays: 1827 (Project Summary), 1813 (Primary HTS)]; type: functional
[11] = inhibitors of SNCA 5'UTR-driven reporter translation, confirmation, H4 neuroglioma cells, luminescence (AID 1988); type: functional, cell-based
Cytochrome P450 2C19 = Cytochrome P450 2C19 (Homo sapiens, UniProt P33261); assay: Cytochrome panel assay with activity outcomes. Panel member name: p450-cyp2c19 Compounds with AC50 equal or less than 10 uM are considered active; type: functional
INS1 = assay: beta cell apoptosis inhibitors, cytokine rescue, dose response, luminescence, retest (AID 449756); type: functional, cell-based; settings: Rattus norvegicus;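 note: cell death triggered by IL-1 beta plus TNF-alpha plus IFN-gamma mixture; protective hits raise ATP signal compared with cytokine alone wells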
[12] = cytotoxicity toward NIH3T3 fibroblasts, dose response, counter-screen, cell-based, ATP luminescence, mouse fibroblasts (AID 2010); type: functional;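 note: cells exposed to compound for about 90 hours before reading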
[13] = inhibitors of intracellular T. cruzi replication, confirmation, NIH3T3 host cells, beta-gal luminescence (AID 2044); type: functional, cell-based;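 note: intracellular parasites grown in NIH/3T3 mouse fibroblasts as host cells; luminescent beta-galactosidase reporter signal from transgenic T. cruzi replicating inside host cells; inhibitors lower the luminescence signal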

Sequence of Cytochrome P450 3A4 (P08684 whole entry): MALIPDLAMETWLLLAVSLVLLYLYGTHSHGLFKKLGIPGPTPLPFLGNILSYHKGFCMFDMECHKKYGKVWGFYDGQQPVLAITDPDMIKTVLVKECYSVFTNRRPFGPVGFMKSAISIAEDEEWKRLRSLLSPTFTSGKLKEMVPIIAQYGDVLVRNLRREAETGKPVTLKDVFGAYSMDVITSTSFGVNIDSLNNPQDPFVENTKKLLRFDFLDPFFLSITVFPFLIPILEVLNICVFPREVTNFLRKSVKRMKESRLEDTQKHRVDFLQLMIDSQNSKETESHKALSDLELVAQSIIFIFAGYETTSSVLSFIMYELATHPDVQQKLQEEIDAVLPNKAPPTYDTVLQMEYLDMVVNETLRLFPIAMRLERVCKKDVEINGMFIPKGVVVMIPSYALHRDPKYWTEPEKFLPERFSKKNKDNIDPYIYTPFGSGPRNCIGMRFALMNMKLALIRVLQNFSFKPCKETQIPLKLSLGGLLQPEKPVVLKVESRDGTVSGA
Sequence of Cytochrome P450 2C19 (P33261 whole entry): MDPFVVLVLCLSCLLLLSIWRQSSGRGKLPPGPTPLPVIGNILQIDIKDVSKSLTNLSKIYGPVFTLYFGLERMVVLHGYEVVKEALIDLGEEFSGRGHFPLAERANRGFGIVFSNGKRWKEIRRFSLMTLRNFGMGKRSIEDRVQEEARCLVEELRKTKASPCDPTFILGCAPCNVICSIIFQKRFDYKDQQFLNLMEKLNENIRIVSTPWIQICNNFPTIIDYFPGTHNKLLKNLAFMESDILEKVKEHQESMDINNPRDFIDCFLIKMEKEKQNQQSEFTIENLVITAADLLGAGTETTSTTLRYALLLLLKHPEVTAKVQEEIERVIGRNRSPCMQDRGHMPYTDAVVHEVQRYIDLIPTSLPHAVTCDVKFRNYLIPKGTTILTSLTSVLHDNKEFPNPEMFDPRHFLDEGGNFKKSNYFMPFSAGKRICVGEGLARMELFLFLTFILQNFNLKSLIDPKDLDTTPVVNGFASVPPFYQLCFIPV

COC(=O)CCCC(=O)N1CCCC(C(=O)c2ccc(-c3ccccc3)cc2)C1 (stereo unspecified)
IC50 (cells [1]): > 50 µM (active)

COc1cccc(Nc2ncc3nc(CCc4ccccc4)c(=O)n(CCC#N)c3n2)c1
AC50 (Cytochrome P450 3A4): 2 µM (inconclusive)

CC(=O)Nc1nc(C)c(-c2csc(Nc3ccccn3)n2)s1
EC50 (cells [2]): > 350 µM (not active) | EC50 (cells [3]): 5.87 µM (active)

COc1ccc(CC(=O)NN=C(S)NCC2CC2)cc1OC
EC50 (cells [2]): > 350 µM (not active) | EC50 (cells [3]): > 350 µM (not active)

CCCN(Cc1nnc(-c2ccccc2Cl)o1)C(=O)c1cc([N+](=O)[O-])cc([N+](=O)[O-])c1
IC50 (cells [1]): 5.87 µM (active)

CN1C(=O)/C(=C/c2ccccc2F)Sc2ccc(C(=O)N3CCCC3)cc21
EC50 (Streptococcus): 2.66 µM (active) | EC50 [4]: 1.06 µM (active)

COCCNc1ncnc2ccc(-c3ccccc3CN(C)C)cc12
AC50 (Cytochrome P450 3A4): 31.6 µM (inconclusive) | AC50 (Cytochrome P450 1A2): 25.1 µM (inconclusive)

COc1ccc(C2C(C#N)=C(N)Oc3cc(O)ccc32)cc1C (stereo unspecified)
EC50 [5]: > 53 µM (inactive)

Cc1ccc(Oc2nc(CN3CCOCC3)nc3sc4c(c23)CCC(C)C4)cc1C (stereo unspecified)
AC50 [6]: 6.74 µM (active) | EC50 [7]: > 195 µM (not active)

CCOc1ccc(C(=O)CSc2nnc3ccccn23)cc1
EC50 (H4): > 120 µM (not active) | EC50 [8]: 35.7 µM (active)

CCc1ccc(NC(=O)COc2ccc3c(c2)OCO3)cc1
IC50 (cells [1]): > 50 µM (active)

Cc1ccc2nc(-c3ccc(NS(=O)(=O)c4c(C)n(C)c(=O)n(C)c4=O)cc3)sc2c1
EC50 [8]: 2.06 µM (active)

O=C(COC(=O)c1ccc(Cl)s1)c1ccc[nH]1
IC50 (cells [1]): 5.77 µM (active)

Cc1cc(=O)oc2cc(OCC(=O)N3CCN(c4ccc(F)cc4)CC3)ccc12
EC50 (cells [2]): > 350 µM (not active) | EC50 (cells [3]): > 350 µM (not active)

CCOc1ccccc1N1CCN(C(=S)NC(=O)C23CC4CC(CC(C4)C2)C3)CC1
EC50 [9]: > 120 µM (not active) | EC50 (cells [2]): > 350 µM (not active) | EC50 (cells [3]): > 350 µM (not active) | EC50 [10]: 24.5 µM (active) | EC50 [11]: 17.3 µM (active)

Cc1ccc(C(=O)Nc2nccs2)cc1
IC50 (cells [1]): 41.4 µM (active)

O=C(c1ccccc1)c1cc2cc(Cl)ccc2[nH]1
EC50 (H4): 13.9 µM (active) | EC50 [8]: 94.6 µM (active)

CC(C)NC(=O)N1CCCC2(CCN(C(=O)c3ccco3)CC2)C1
AC50 (Cytochrome P450 3A4): 25.1 µM (inconclusive)

CCOc1ccc(C2=NN=C(c3ccc(N4CCOCC4)cc3)c3ccccc3N2)cc1
EC50 (H4): > 120 µM (not active) | EC50 [8]: 30.1 µM (active)

CS(=O)(=O)c1cccc(C(=O)N(CCc2ccccc2)Cc2cccs2)c1
EC50 (cells [2]): > 350 µM (not active) | EC50 (cells [3]): > 350 µM (not active)

CC(NC(=O)c1cc2c(s1)CS(=O)(=O)C2)c1ccccc1 (stereo unspecified)
EC50 (cells [2]): > 350 µM (not active) | EC50 (cells [3]): > 350 µM (not active)

Cc1nc2nc3c(cn2n1)C(=O)CC(c1ccccc1)C3 (stereo unspecified)
EC50 (cells [2]): > 350 µM (not active)

c1ccc2[nH]c(NC3=NCCC3)nc2c1
IC50 (cells [1]): 12.2 µM (active) | AC50 (Cytochrome P450 2C19): inconclusive

O=C(c1ccccc1-c1nc(-c2ccccc2)no1)N1CCOCC1
AC50 (Cytochrome P450 3A4): 28.2 µM (inconclusive) | AC50 (Cytochrome P450 1A2): 39.8 µM (inconclusive)

CCOC(=O)N1CCC(NC(=O)c2cc(S(=O)(=O)N3CCCC3)cn2C)CC1
AC50 (Cytochrome P450 3A4): 14.1 µM (inconclusive) | AC50 (Cytochrome P450 2C19; read-out: AC50): 8.91 µM (inconclusive)

CCc1cccc(C)c1NC(=S)N1CCCCC1c1cccnc1 (stereo unspecified)
EC50 [5]: 6.05 µM (active)

C=CCN1C(c2cccc(C(F)(F)F)c2)=CS/C1=C(\C#N)c1nnc(N2CCOCC2)n1-c1ccccc1
EC50 [5]: > 53 µM (inactive)

CN(C)c1ccc(C=NN2C(=O)CSC2=S)c(Cl)c1
EC50 [5]: > 53 µM (inactive)

O=C(CNS(=O)(=O)c1ccc([N+](=O)[O-])cc1)N/N=C\c1ccc(O)cc1
EC50 [5]: 7.12 µM (active)

COc1ccccc1N1CCN(CCn2c(=O)[nH]c3c([nH]c4ccccc43)c2=O)CC1
AC50 (Cytochrome P450 3A4): 15.8 µM (inconclusive) | AC50 (Cytochrome P450 1A2): 39.8 µM (inconclusive)

COc1ccccc1N(CC(=O)N/N=C/c1c(O)ccc2ccccc12)S(C)(=O)=O
EC50 [9]: 13.5 µM (active) | EC50 (cells [2]): 9.19 µM (active) | EC50 [10]: 22.8 µM (active) | AC50 (INS1): 2.15 µM (active) | EC50 [11]: 8.56 µM (active)

C/C(Cn1nnc([N+](=O)[O-])n1)=N\NC(=O)c1ccncc1
IC50 (cells [1]): 0.3 µM (active) | EC50 [12]: > 30 µM (not active) | EC50 [13]: 0.214 µM (active)

Cc1ccc(/C=N/NC(=O)c2ccc(Br)o2)s1
EC50 (cells [2]): > 350 µM (not active) | EC50 (cells [3]): 37.1 µM (active)

COc1ccccc1N1CCN(CCN2C(=O)c3ccccc3C(C)(C)C2=O)CC1
AC50 (Cytochrome P450 3A4): 15.8 µM (inconclusive) | AC50 (Cytochrome P450 1A2): 39.8 µM (inconclusive)
